Assay [1] in a line: P. falciparum Dd2 growth inhibitors, dose response, SYBR Green, dry powder samples, set 9 (AID 1159568). It is filed as functional, cell-based.
Assay [2] has as its system Vero. The assay can be described thus: host cell cytotoxicity of antiviral hits, dose response, cytotoxicity control for West Nile virus antiviral project, secondary assay (AID 1650). It is filed as functional. The conditions noted are these: Chlorocebus sabaeus.
In assay [3] the test system is Vero. Kind of assay: West Nile virus antiviral activity, cell-based, CPE readout (AID 1621). Type of assay: functional. The conditions noted are these: Chlorocebus sabaeus.
The target in assay [4] is ATP-sensitive inward rectifier potassium channel 1 (Homo sapiens, UniProt P48048). Kind of assay: ROMK inhibition by analog compounds, SAR follow-up, cell-based, thallium flux, analog library (AID 435017). Type of assay: functional.
A further assay addresses SUMO-activating enzyme (Homo sapiens, UniProt Q9UBT2). The assay can be described thus: SUMOylation inhibitor hit validation, confirmation, SUMOylation inhibitor project, biochemical, AlphaScreen (AID 2018). It is filed as functional.
Assay [5] can be described thus: A549 cell cytotoxicity, dose response, CellTiter-Glo luminescence, dry powder, set 17 (AID 1117284). It is filed as functional, cell-based.
Assay [6] can be described thus: C. albicans growth with fluconazole, confirmation, fluorescence, retest (AID 2467). Type of assay: functional, cell-based.
Assay [7] is described as follows: NIH-3T3 fibroblast cytotoxicity, dose response, cytotoxicity control, cell-based, fluorescence, Alamar Blue, secondary assay (AID 2327).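 Note: NIH-3T3 mouse fibroblasts cultured with fluconazole at 8 µg/mL.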 Type of assay: functional.
The nature of assay [8]: cells. Type of assay: functional, cell-based.
Assay [9] can be described thus: cells. It is filed as functional, cell-based. This is another data set of the same source.
Assay [10] addresses Voltage-gated inwardly rectifying potassium channel KCNH2 (Homo sapiens, UniProt Q12809). The assay can be described thus: hERG protection from proarrhythmic block, potency, dose response, cell-based, thallium flux (AID 2121). It is filed as ADME.
Assay [11] has as its target T1, Rac GTPase-activating protein 1 (Homo sapiens, UniProt Q9H0H5).
T1 sequence (Q9H0H5 whole entry): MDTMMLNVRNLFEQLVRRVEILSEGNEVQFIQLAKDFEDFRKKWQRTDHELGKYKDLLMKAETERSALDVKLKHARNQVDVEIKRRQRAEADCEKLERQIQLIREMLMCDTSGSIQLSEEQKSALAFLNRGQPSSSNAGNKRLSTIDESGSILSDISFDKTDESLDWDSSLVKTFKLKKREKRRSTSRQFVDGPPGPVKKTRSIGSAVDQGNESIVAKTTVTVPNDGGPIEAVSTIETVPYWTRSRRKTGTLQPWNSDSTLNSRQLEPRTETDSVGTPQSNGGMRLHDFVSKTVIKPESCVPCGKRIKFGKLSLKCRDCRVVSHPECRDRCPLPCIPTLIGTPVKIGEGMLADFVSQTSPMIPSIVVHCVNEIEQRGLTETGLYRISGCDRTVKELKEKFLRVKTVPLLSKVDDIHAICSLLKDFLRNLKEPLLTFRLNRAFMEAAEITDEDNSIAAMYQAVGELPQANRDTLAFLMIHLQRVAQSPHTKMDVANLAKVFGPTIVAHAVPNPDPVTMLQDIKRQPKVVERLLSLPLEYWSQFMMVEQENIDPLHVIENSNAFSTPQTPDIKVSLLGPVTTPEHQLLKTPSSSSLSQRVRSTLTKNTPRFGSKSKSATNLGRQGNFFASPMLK
The assay can be described thus: MgcRacGAP GTPase-activating activity inhibitors, confirmation, biochemical, ADP Hunter fluorescence, primary and confirmatory (AID 624330). Type of assay: functional.

The target of assay [12] is T2, NADPH oxidase 1 (Homo sapiens, UniProt Q9Y5S8). It is filed as functional, cell-based.
A short description of assay [13]: inhibitors of intracellular T. cruzi replication, confirmation, NIH3T3 host cells, beta-gal luminescence (AID 2044).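 Note: intracellular parasites grown in NIH/3T3 mouse fibroblasts as host cells; luminescent beta-galactosidase reporter signal from transgenic T. cruzi replicating inside host cells; inhibitors lower the luminescence signal.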 It is filed as functional, cell-based.
Assay [14] deals with T2, NADPH oxidase 1. Kind of assay: Luminescence-based cell-based dose response assay to identify inhibitors of NADPH oxidase 1 (NOX1). Type of assay: functional.
Assay [15] in a line: cytotoxicity toward NIH3T3 fibroblasts, dose response, counter-screen, cell-based, ATP luminescence, mouse fibroblasts (AID 2010).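 Note: cells exposed to compound for about 90 hours before reading.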 Type of assay: functional.
The target of assay [16] is Peroxisome proliferator-activated receptor gamma/Nuclear receptor coactivator 1 (Homo sapiens, UniProt P37231). Type of assay: functional.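 Note: agonist potency as compounds enhance coactivator SRC-1 recruitment to PPARgamma.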
The target of assay [17] is Peroxisome proliferator-activated receptor gamma/Nuclear receptor coactivator 3 (Homo sapiens, UniProt P37231). It is filed as functional.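 Note: agonist potency for raising coactivator recruitment to the receptor.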
Another assay addresses Genome polyprotein (Hepatitis C virus, UniProt Q2Q167). Kind of assay: HCV core protein dimerization inhibitors, dose response, biochemical, TR-FRET (AID 2159).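 Note: blocks dimerization of HCV core protein measured by TR-FRET between tagged core106 pairs.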 Further details: species or system Hepacivirus hominis.
Assay [18] addresses Peroxisome proliferator-activated receptor gamma/Nuclear receptor coactivator 2 (Homo sapiens, UniProt P37231). It is filed as functional.
Assay [19] addresses Aryl hydrocarbon receptor (Homo sapiens, UniProt P35869). The assay can be described thus: Luminescence-based cell-based high throughput dose response assay for activators of the Aryl Hydrocarbon Receptor (AHR). [Related pubchem assays: 2796 (Primary screen (AHR activators in singlicate)), 2845 (Confirmation screen (AHR activators in triplicate)), 434939 (Counterscreen (PXR activators in triplicate)), 2804 (Summary (AHR activators))]. It is filed as ADME.

The nature of assay [20]: ADAM10 protease inhibitors, dose response, selectivity assay for ADAM17 exosite inhibitor project, biochemical, FRET peptide substrate, recombinant human ADAM10 (AID 743259).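 Note: ADAM10 enzyme cleaving a FRET peptide substrate.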
Assay [21] has as its target 5-hydroxytryptamine receptor 1E (Homo sapiens, UniProt P28566). Kind of assay: Counterscreen assay for S1P3 antagonists: Dose response cell-based high throughput screening assay to identify antagonists of the 5-Hydroxytryptamine Receptor Subtype 1E (5HT1E). [Related pubchem assays: 1429, 485 ]. It is filed as functional.
Assay [22] concerns the target Disintegrin and metalloproteinase domain-containing protein 17 (Homo sapiens, UniProt P78536). Kind of assay: exosite inhibitors of ADAM17, dose response, biochemical (AID 743260).
In assay [23] the target is Sphingosine 1-phosphate receptor 3 (Homo sapiens, UniProt Q99500). The assay can be described thus: Dose response cell-based high throughput screening assay for antagonists of the Sphingosine 1-Phosphate Receptor 3 (S1P3). [Related pubchem assays: 1429, 485 ]. Type of assay: functional.
For assay [24], the target named is Solute carrier family 12 member 2/member 5 (Homo sapiens, UniProt P55011+Q9H2X9). Kind of assay: KCC2 and NKCC1 inhibition by rubidium flux, cell-based, NKCC1 counter-screen (AID 1734). It is filed as functional, HEK293.
The nature of assay [25]: Luminescence-based dose response cell-based high throughput screening assay for cytotoxic compounds using the IEC-6 intestinal epithelial cell line. [Related pubchem assays: 1858 (Summary AID.), 1825 (Counterscreen.), 1907 (Confirmation screen.)]. It is filed as functional.
The nature of assay [26]: cells.
Assay [27] in a line: HEp-2 cell cytotoxicity, dose response, cytotoxicity control for RSV inhibitor project, HTS (AID 2410). It is filed as functional. The conditions noted are these: human respiratory syncytial virus.
The target in assay [28] is Photoreceptor-specific nuclear receptor (Homo sapiens, UniProt Q9Y5X4). Type of assay: functional, cell-based.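 Note: CHO-S cells with Gal4-NCOR and VP16-NR2E3 two-hybrid luciferase reporter.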
Assay [29] has as its target T3, Mannose-6-phosphate isomerase (Homo sapiens, UniProt P34949).
T3 sequence (P34949 whole entry): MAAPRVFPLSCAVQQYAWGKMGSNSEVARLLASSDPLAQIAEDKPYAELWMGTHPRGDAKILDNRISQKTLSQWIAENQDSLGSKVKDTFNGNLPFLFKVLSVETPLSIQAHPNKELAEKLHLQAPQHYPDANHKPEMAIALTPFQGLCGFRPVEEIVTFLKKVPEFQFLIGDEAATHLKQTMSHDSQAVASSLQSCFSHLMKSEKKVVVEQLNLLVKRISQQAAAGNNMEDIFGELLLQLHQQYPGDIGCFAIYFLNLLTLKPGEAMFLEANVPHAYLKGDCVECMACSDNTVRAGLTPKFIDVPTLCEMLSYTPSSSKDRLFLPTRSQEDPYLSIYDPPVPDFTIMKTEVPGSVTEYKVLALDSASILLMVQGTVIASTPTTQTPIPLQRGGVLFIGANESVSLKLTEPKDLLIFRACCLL
The assay can be described thus: inhibitors of human PMI, primary screen, biochemical, fluorescence intensity, coupled assay (AID 1209).

For assay [30], the target named is T3, Mannose-6-phosphate isomerase. Kind of assay: human PMI inhibitors, high substrate, primary screen, biochemical, fluorescence intensity, high mannose 6-phosphate (AID 1220).
Assay [31] in a line: HeLa 2N DNA content increase, dose response, cell-based, IC50 (AID 1117349). It is filed as functional.
Assay [32] in a line: HeLa 4N DNA content increase, dose response, cell-based, IC50 (AID 1117351). Type of assay: functional.
The target of assay [33] is Neuropeptide Y receptor type 1 (Homo sapiens, UniProt P25929). It is filed as functional.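 Note: HEK293 cells with a CNG channel challenged with NPY then isoproterenol; potency as antagonist that reverses NPY suppression of cAMP signal.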
The target in assay [34] is Neuropeptide Y receptor type 2 (Homo sapiens, UniProt P49146). Type of assay: functional, cell-based.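 Note: HEK293 cells expressing the receptor and a CNG channel; stimulus was NPY near EC95 followed by isoproterenol to raise cAMP; antagonist potency measured as restoring cAMP signal that NPY suppresses.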

The source made the active and inactive calls.

T2 sequence (Q9Y5S8 whole entry): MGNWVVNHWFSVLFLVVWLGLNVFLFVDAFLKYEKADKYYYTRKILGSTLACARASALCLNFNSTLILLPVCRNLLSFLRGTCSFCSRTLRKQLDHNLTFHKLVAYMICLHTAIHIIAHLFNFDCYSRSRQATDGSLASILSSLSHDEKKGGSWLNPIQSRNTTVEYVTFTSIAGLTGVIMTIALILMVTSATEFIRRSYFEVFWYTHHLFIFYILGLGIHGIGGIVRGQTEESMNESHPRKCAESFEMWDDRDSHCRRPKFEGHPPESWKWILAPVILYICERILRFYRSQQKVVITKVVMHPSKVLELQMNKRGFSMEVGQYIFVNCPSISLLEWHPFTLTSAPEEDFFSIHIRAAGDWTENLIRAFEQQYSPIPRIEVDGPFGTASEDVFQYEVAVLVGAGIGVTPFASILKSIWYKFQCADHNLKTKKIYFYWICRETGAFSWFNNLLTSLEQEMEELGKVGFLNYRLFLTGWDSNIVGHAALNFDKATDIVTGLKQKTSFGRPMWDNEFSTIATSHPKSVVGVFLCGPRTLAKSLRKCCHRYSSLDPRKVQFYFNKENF
Peroxisome proliferator-activated receptor gamma/Nuclear receptor coactivator 2, sequence (P37231 whole entry): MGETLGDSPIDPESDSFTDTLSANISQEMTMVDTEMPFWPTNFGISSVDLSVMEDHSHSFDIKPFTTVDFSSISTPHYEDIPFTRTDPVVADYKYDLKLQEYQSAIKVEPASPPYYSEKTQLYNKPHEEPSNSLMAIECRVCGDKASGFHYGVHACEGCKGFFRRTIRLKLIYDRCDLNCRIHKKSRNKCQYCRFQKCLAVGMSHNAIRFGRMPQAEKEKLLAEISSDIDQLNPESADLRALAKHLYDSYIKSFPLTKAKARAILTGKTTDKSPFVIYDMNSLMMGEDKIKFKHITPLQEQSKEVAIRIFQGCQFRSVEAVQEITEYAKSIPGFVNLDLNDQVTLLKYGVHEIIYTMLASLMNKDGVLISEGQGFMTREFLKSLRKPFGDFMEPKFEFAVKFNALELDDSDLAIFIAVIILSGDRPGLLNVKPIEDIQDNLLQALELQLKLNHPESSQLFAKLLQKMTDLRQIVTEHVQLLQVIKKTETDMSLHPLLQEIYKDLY
Peroxisome proliferator-activated receptor gamma/Nuclear receptor coactivator 2, sequence (Q15596 whole entry, further chain): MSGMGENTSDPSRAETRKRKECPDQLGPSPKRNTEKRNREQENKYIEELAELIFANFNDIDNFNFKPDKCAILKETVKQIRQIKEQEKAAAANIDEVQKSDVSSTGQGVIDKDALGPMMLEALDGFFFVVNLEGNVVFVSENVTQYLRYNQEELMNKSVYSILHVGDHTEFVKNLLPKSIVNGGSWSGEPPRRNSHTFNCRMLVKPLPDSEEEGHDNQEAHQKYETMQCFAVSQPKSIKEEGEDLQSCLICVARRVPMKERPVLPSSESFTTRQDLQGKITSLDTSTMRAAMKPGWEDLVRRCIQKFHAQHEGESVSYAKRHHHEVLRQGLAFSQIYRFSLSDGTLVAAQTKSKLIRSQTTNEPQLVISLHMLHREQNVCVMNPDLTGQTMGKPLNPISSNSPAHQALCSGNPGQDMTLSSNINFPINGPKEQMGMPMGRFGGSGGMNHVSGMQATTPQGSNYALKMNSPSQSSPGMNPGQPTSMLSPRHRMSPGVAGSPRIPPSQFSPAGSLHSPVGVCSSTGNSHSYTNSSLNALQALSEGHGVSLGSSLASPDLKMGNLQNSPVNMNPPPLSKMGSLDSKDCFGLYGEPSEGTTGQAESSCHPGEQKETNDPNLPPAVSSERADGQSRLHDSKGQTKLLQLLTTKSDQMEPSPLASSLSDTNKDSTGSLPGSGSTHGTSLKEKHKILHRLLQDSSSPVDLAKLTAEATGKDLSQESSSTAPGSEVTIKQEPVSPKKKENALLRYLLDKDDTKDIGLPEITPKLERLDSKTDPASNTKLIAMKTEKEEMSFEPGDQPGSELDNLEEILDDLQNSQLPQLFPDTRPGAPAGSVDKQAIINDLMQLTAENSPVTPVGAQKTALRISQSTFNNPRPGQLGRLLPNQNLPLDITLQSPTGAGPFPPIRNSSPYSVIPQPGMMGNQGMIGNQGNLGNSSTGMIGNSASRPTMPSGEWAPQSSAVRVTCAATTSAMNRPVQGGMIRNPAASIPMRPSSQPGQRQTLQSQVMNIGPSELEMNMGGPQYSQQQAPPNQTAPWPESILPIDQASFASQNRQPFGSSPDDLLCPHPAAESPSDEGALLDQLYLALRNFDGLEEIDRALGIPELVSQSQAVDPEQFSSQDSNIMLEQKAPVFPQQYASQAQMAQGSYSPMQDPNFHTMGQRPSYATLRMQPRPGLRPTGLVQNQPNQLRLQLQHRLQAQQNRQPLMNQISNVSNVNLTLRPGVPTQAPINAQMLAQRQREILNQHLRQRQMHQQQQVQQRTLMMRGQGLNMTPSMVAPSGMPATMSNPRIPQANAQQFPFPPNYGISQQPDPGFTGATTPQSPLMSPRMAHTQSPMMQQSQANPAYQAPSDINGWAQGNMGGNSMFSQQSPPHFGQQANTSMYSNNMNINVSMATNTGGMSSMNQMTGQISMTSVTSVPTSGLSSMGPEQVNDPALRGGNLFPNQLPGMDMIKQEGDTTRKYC
Peroxisome proliferator-activated receptor gamma/Nuclear receptor coactivator 3, sequence (P37231 whole entry): as the sequence (P37231 whole entry) above
Peroxisome proliferator-activated receptor gamma/Nuclear receptor coactivator 3, sequence (Q9Y6Q9 whole entry, further chain): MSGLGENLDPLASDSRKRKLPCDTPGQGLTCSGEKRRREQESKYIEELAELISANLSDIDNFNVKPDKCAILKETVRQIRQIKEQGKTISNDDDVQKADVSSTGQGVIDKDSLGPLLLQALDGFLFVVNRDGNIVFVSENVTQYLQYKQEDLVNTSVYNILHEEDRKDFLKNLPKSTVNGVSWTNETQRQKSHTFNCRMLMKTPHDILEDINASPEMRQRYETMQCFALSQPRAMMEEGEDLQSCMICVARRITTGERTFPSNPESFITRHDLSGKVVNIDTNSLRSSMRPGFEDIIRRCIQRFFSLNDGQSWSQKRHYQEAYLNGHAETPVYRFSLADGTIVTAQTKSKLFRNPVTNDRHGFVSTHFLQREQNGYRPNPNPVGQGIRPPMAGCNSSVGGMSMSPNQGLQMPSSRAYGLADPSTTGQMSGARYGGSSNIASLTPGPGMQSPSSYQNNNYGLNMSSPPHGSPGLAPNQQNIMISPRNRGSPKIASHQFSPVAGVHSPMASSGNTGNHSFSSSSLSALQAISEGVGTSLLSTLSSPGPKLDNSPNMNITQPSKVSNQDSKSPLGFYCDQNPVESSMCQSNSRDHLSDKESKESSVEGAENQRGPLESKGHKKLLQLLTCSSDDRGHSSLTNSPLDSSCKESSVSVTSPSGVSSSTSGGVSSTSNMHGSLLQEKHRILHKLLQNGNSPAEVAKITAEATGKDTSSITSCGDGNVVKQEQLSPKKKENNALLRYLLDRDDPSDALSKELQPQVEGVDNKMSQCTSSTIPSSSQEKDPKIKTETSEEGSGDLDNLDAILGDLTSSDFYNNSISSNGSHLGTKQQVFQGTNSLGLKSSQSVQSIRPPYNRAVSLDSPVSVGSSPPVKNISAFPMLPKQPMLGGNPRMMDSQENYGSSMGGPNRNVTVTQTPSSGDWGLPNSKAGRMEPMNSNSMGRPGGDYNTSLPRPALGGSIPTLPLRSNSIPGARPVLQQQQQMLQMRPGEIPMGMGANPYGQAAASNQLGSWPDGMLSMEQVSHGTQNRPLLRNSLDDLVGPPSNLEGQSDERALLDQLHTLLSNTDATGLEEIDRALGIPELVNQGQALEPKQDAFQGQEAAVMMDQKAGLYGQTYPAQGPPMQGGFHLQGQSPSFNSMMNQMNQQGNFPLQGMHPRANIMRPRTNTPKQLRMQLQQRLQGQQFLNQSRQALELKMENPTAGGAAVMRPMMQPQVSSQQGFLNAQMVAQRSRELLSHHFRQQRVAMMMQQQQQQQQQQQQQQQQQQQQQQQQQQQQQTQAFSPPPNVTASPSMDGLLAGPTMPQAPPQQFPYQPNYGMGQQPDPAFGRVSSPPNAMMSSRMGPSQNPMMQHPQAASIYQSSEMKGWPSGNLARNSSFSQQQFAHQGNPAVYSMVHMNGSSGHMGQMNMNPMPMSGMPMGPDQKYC
Neuropeptide Y receptor type 1, sequence (P25929 whole entry): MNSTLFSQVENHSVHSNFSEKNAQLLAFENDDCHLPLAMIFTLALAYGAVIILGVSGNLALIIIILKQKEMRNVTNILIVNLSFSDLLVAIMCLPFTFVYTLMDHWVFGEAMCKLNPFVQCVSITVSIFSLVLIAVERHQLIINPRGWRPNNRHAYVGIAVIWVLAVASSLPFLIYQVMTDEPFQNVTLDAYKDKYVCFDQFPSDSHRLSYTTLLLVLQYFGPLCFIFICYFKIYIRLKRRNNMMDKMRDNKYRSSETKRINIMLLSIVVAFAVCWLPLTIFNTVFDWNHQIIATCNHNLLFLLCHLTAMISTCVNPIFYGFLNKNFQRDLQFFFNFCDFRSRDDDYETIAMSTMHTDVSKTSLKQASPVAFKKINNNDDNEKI
Genome polyprotein, sequence (Q2Q167 whole entry): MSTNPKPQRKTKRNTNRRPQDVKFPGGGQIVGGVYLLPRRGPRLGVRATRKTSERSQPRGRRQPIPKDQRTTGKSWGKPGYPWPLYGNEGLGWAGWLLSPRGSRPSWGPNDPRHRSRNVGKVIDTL

With `N#C[C@H]1[C@H](c2ccc(-c3cccc(F)c3)cc2)[C@@H](CO)N1C(=O)NC1CCCC1`, the AC50 in assay [1] is 20.2 µM (active).
For `CCC1CCCCN1CCCNC(=O)c1cc2c(Cl)nc3ccccc3c2s1` (stereo not drawn), in the assay with Vero [2], the CC50 was 12.7 µM (active). Moreover, in the assay with Vero [3], the IC50 is 8.75 µM (active).
For `O=[N+]([O-])c1ccc2[nH]c(CCCc3nc4cc([N+](=O)[O-])ccc4[nH]3)nc2c1`, the IC50 in assay [4] was 6.53 µM (active); at SUMO-activating enzyme, > 100 µM (inactive).
Turning to `C[C@H]1CN([C@@H](C)CO)S(=O)(=O)c2ccc(-c3ccc(O)cc3)cc2O[C@H]1CN(C)Cc1ccc(-c2ccccc2)cc1`, the AC50 in [5] is > 52 µM (inactive).
Take `COc1ccc(NC(=O)C(=O)NNC(=O)c2ccc(Cl)cc2Cl)cc1`: the EC50 in assay [6] was 2.28 µM (active); in [7], > 150 µM (inactive); in the assay “cells [8]”, > 350 µM (not active); in the assay “cells [9]” it was > 350 µM (not active); in [10], 0.5 µM (active).
Turning to `CCOC(=O)Nc1ccc2c(c1)Nc1ccccc1S2`, the IC50 in [11] is 45 µM (active); at NADPH oxidase 1 [12], 0.915 µM (active); on NADPH oxidase 1 [14] it was 0.054 µM (active). Moreover, the EC50 in assay [13] is < 0.1 µM (active); in assay [15], > 60 µM (not active).
As to `Cc1cc(OCC(=O)Nc2cc(-c3nn4c(C)nnc4s3)ccc2C)ccc1Cl`, the results for the EC50 in assay [16], in [17] and in [18] were 9.05 µM (active), 8.97 µM (active) and 10.1 µM (not active), respectively. Moreover, the IC50 on Genome polyprotein was > 49.8 µM (not active).
Regarding `COc1ccccc1NC(=O)Nc1cccnc1`, the concentration giving a half-maximal response (EC50) in assay [19] was 2.25 µM (active).
With `COc1ccc(C(CC(=O)c2ccc(C)cc2)Nc2ccc([N+](=O)[O-])cc2)cc1` (stereo not drawn), the IC50 is 26.8 µM (inactive) in assay [20], > 50 µM (not active) in [21], > 69.5 µM (inactive) in assay [22] and 2.05 µM (active) in assay [23].
Turning to `O=C(Cn1cnc2c(nnn2Cc2ccccc2)c1=O)c1ccc(Cl)cc1`, the IC50 in assay [24] is 1.2 µM (active).
As to `Cc1cccc(/C=N/Nc2cc(N3CCOCC3)nc(N3CCOCC3)n2)c1`, the IC50 in [25] was 0.692 µM (active); in assay [28], 1.88 µM (active); in assay [29], > 50 µM (not active); in assay [30], > 50 µM (not active). The values for the EC50 (in the assay “cells [26]”; in assay [13]; in [15]) were 0.077 µM (active), < 0.1 µM (active) and 1.6 µM (active), respectively. Further, in assay [27], the CC50 is 24.6 µM (active).
In the case of `C[C@@H]1C[C@H]2[C@@H]3CCC4=CC(=O)C=C[C@]4(C)[C@@]3(Cl)[C@@H](O)C[C@]2(C)[C@@]1(OC(=O)c1ccco1)C(=O)CCl` [MOMETASONE FUROATE], the IC50 in assay [31] and in assay [32] was > 10 µM (inactive) throughout.
On to `COc1cccc(-c2nc(-c3ccc(NC(=O)Cc4ccccc4OC)cc3)no2)c1`, for which the IC50 in [33] is > 35 µM (not active); in assay [34] it was 0.733 µM (active).

For the origin of these results see ChEMBL document CHEMBL1201862, “PubChem BioAssay data set” (2004).
